Source: patent US9617244B2, “Antibacterial quinoline derivatives” (JANSSEN PHARMACEUTICA NV, priority 2012, dated 2017)
Converted amounts (≈) assume the structure as drawn.

What was measured:
[1] = system: Staphylococcus aureus (ATCC29213); assay: In-vitro anti-bacterial activity, microtitre plate assay, IC90 determination (non-mycobacterial strains); assay type: cell-based; settings: 90% inhibitory concentration for bacterial growth, resazurin fluorescence; for IC90: Staphylococcus aureus, ATCC29213, 24 h, read-out: IC90 STA B29213; for IC90 STA B29213: 24 hours
Procedure, shortened: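 Inoculum of about 100 TCID50 (10–60 CFU/well) in Mueller-Hinton broth, serial five-fold compound dilutions, 24 h at 37 °C in air. Growth read by resazurin fluorescence (ex 530/em 590 nm); IC90 in μg/ml as 90% growth inhibition.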

[2] = system: Mycobacterium smegmatis (ATCC607); assay: In-vitro anti-bacterial activity against strain M. Smegmatis ATCC607; assay type: cell-based; settings: 90% inhibitory concentration for bacterial growth, Alamar Blue fluorescence; for IC90 MSM 607: 48 hours; for IC90: Mycolicibacterium smegmatis, ATCC607, 48 h, read-out: IC90 MSM 607
Procedure, shortened: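 Serial five-fold compound dilutions in BSA-supplemented wells, inoculated with ~250 CFU/well in Mueller-Hinton broth, incubated 48 h at 37 °C, 5% CO2. Growth read by Alamar Blue fluorescence (ex 530/em 590 nm); IC90 in μg/ml.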

Compound: O=c1[nH]c2ccc(Br)cc2cc1C(c1ccc(Cl)cc1)C1(O)CCNC(CC2CCCCC2)C1 (stereo not drawn) [Compound 254]
- IC90 [1]: 3.6 µg/mL (≈ 6.62 µM)
- IC90 MSM 607 [2]: 3.60 µg/mL (≈ 6.62 µM)

Compound: CS(=O)(=O)c1ccc2[nH]c(=O)c(C(c3cccc(Cl)c3)C3(O)CCNC(Cc4ccc(F)cc4F)C3)cc2c1 (stereo not drawn) [Compound 307]
- IC90 STA B29213 [1]: >15.12 µg/mL
- IC90 MSM 607 [2]: >15.12 µg/mL

Compound: COc1nc2ccc(SC)cc2cc1C(c1ccc(Cl)cc1)C1(O)CCNC(CC2CCCCC2)C1 (stereo not drawn) [Compound 288]
- IC90 STA B29213 [1]: 4.29 µg/mL (≈ 8.17 µM)
- IC90 MSM 607 [2]: 3.41 µg/mL (≈ 6.49 µM)

Compound: COc1nc2ccccc2cc1C(c1ccc(Cl)cc1)C1(O)CCNC(Cc2ccc(F)c(F)c2)C1 (stereo not drawn) [Compound 140]
- IC90 STA B29213 [1]: 2.55 µg/mL (≈ 5.01 µM)
- IC90 MSM 607 [2]: 0.72 µg/mL (≈ 1.41 µM)

Compound: COc1nc2ccc(Br)cc2cc1C(c1cccc(Cl)c1)C1(O)CCNC(c2ccc(F)cc2C)C1 (stereo not drawn) [Compound 149]
- IC90 STA B29213 [1]: 5.63 µg/mL (≈ 9.88 µM)
- IC90 MSM 607 [2]: 2.52 µg/mL (≈ 4.42 µM)

Compound: CS(=O)(=O)c1ccc2[nH]c(=O)c(C(c3ccc(Cl)cc3)C3(O)CCNC(Cc4ccc(F)c(F)c4)C3)cc2c1 (stereo not drawn) [Compound 212]
- IC90 STA B29213 [1]: 7.60 µg/mL (≈ 13.3 µM)
- IC90 MSM 607 [2]: 6.04 µg/mL (≈ 10.5 µM)

Compound: COc1nc2ccc(SC)cc2cc1C(c1ccc(Cl)cc1)C1(O)CCNCC1Cc1cccc(F)c1 (stereo not drawn) [Compound 284]
- IC90 STA B29213 [1]: 4.25 µg/mL (≈ 7.91 µM)
- IC90 MSM 607 [2]: 3.38 µg/mL (≈ 6.29 µM)

Compound: CSc1ccc2[nH]c(=O)c(C(c3cccc(Cl)c3)C3(O)CCNC(c4ccc(F)cc4C)C3)cc2c1 (stereo not drawn) [Compound 160]
- IC90 STA B29213 [1]: 3.51 µg/mL (≈ 6.71 µM)
- IC90 MSM 607 [2]: 2.48 µg/mL (≈ 4.74 µM)

Compound: CSc1ccc2[nH]c(=O)c(C(c3cccc(Cl)c3)C3(O)CCNC(Cc4ccc(F)cc4F)C3)cc2c1 (stereo not drawn) [Compound 329]
- IC90 STA B29213 [1]: 7.27 µg/mL (≈ 13.4 µM)
- IC90 MSM 607 [2]: 7.27 µg/mL (≈ 13.4 µM)

Compound: CSc1ccc2[nH]c(=O)c(C(c3ccc(Cl)cc3)C3(O)CCNC(c4ccccc4)C3)cc2c1 (stereo not drawn) [Compound 232]
- IC90 STA B29213 [1]: 6.65 µg/mL (≈ 13.5 µM)
- IC90 MSM 607 [2]: 5.93 µg/mL (≈ 12.1 µM)

Compound: COc1nc2ccc(Cl)cc2cc1C(c1ccc(Cl)cc1)C1(O)CCNC(Cc2cccnc2)C1 (stereo not drawn) [Compound 468]
- IC90 STA B29213 [1]: 3.21 µg/mL (≈ 6.31 µM)
- IC90 MSM 607 [2]: 3.21 µg/mL (≈ 6.31 µM)

Compound: Cc1cc(F)ccc1C1CC(O)(C(c2ccc(Cl)cc2)c2cc3cc(Cl)ccc3[nH]c2=O)CCN1 (stereo not drawn) [Compound 304]
- IC90 STA B29213 [1]: 3.45 µg/mL (≈ 6.75 µM)
- IC90 MSM 607 [2]: 1.73 µg/mL (≈ 3.38 µM)

Compound: COc1nc2ccc(Cl)cc2cc1C(c1ccc(Cl)cc1)C1(O)CCNCC1c1ccccc1 (stereo not drawn) [Compound 412]
- IC90 STA B29213 [1]: 4.02 µg/mL (≈ 8.15 µM)
- IC90 MSM 607 [2]: 2.02 µg/mL (≈ 4.09 µM)

Compound: Cc1cc(F)ccc1C1CC(O)(C(c2cccc(Cl)c2)c2cc3cc(Br)ccc3[nH]c2=O)CCN1 (stereo not drawn) [Compound 137]
- IC90 STA B29213 [1]: 3.69 µg/mL (≈ 6.64 µM)
- IC90 MSM 607 [2]: 1.65 µg/mL (≈ 2.97 µM)

Compound: O=c1[nH]c2ccc(Br)cc2cc1C(c1ccc(Cl)cc1)C1(O)CCNC(Cc2ccc(F)cc2)C1 (stereo not drawn) [Compound 363]
- IC90 STA B29213 [1]: 1.87 µg/mL (≈ 3.36 µM)
- IC90 MSM 607 [2]: 3.74 µg/mL (≈ 6.73 µM)

Compound: CSc1ccc2[nH]c(=O)c(C(c3ccc(Cl)cc3)C3(O)CCNC(CC4CCCCC4)C3)cc2c1 (stereo not drawn) [Compound 297]
- IC90 STA B29213 [1]: 3.43 µg/mL (≈ 6.71 µM)
- IC90 MSM 607 [2]: 13.65 µg/mL (≈ 26.7 µM)

Compound: CS(=O)(=O)c1ccc2[nH]c(=O)c(C(c3ccc(Cl)cc3)C3(O)CCNC(Cc4ccc(F)cc4)C3)cc2c1 (stereo not drawn) [Compound 59]
- IC90 STA B29213 [1]: 6.99 µg/mL (≈ 12.6 µM)
- IC90 MSM 607 [2]: 5.55 µg/mL (≈ 10 µM)

Compound: Cc1cc(F)ccc1C1CC(O)(C(c2cccc(Cl)c2)c2cc3cc(Br)ccc3[nH]c2=O)CCN1 (stereo not drawn) [Compound 145]
- IC90 STA B29213 [1]: 2.92 µg/mL (≈ 5.25 µM)
- IC90 MSM 607 [2]: 2.32 µg/mL (≈ 4.17 µM)

Compound: COc1nc2ccc(S(C)(=O)=O)cc2cc1C(c1ccc(Cl)cc1)C1(O)CCNC(Cc2ccc(F)c(F)c2)C1 (stereo not drawn) [Compound 209]
- IC90 STA B29213 [1]: 14.75 µg/mL (≈ 25.1 µM)
- IC90 MSM 607 [2]: 14.75 µg/mL (≈ 25.1 µM)

Compound: COc1nc2ccc(Cl)cc2cc1C(c1ccc(Cl)cc1)C1(O)CCNC(c2ccccc2)C1 (stereo not drawn) [Compound 405]
- IC90 STA B29213 [1]: 5.26 µg/mL (≈ 10.7 µM)
- IC90 MSM 607 [2]: 2.63 µg/mL (≈ 5.33 µM)

Compound: CC1CC(O)(C(c2ccc(Cl)cc2)c2cc3cc(Br)ccc3[nH]c2=O)CCN1 (stereo not drawn) [Compound 130]
- IC90 STA B29213 [1]: 11.60 µg/mL (≈ 25.1 µM)
- IC90 MSM 607 [2]: 5.81 µg/mL (≈ 12.6 µM)

Compound: Cc1cc(F)ccc1C1CC(O)(C(c2cccc(Cl)c2)c2cc3cc(S(C)(=O)=O)ccc3[nH]c2=O)CCN1 (stereo not drawn) [Compound 269]
- IC90 STA B29213 [1]: >14.75 µg/mL
- IC90 MSM 607 [2]: >14.75 µg/mL

Compound: CSc1ccc(C(c2cc3cc(Cl)ccc3[nH]c2=O)C2(O)CCNC(c3ccc(F)cc3C)C2)cc1 (stereo not drawn) [Compound 350]
- IC90 STA B29213 [1]: 2.80 µg/mL (≈ 5.35 µM)
- IC90 MSM 607 [2]: 1.77 µg/mL (≈ 3.38 µM)

Compound: COc1nc2ccc(Cl)cc2cc1C(c1ccc(Cl)cc1)C1(O)CCNC(c2ccc3ccccc3c2)C1 (stereo not drawn) [Compound 432]
- IC90 STA B29213 [1]: 7.41 µg/mL (≈ 13.6 µM)
- IC90 MSM 607 [2]: 5.24 µg/mL (≈ 9.64 µM)

Compound: COc1nc2ccc(SC)cc2cc1C(c1cccc(Cl)c1)C1(O)CCNC(c2ccc(F)cc2C)C1 (stereo not drawn) [Compound 164]
- IC90 STA B29213 [1]: 4.23 µg/mL (≈ 7.88 µM)
- IC90 MSM 607 [2]: 2.38 µg/mL (≈ 4.43 µM)

Compound: COc1nc2ccc(S(C)(=O)=O)cc2cc1C(c1ccc(Cl)cc1)C1(O)CCNC(c2ccc(F)cc2C)C1 (stereo not drawn) [Compound 201]
- IC90 STA B29213 [1]: >19.28 µg/mL
- IC90 MSM 607 [2]: >19.28 µg/mL

Compound: CSc1ccc2[nH]c(=O)c(C(c3cccc(Cl)c3)C3(O)CCNC(Cc4ccc(F)cc4F)C3)cc2c1 (stereo not drawn) [Compound 309]
- IC90 STA B29213 [1]: 14.50 µg/mL (≈ 26.8 µM)
- IC90 MSM 607 [2]: 11.52 µg/mL (≈ 21.3 µM)

Compound: O=c1[nH]c2ccc(Br)cc2cc1C(c1ccc(Cl)cc1)C1(O)CCNC(Cc2ccc(F)cc2F)C1 (stereo not drawn) [Compound 323]
- IC90 STA B29213 [1]: 7.68 µg/mL (≈ 13.4 µM)
- IC90 MSM 607 [2]: 6.10 µg/mL (≈ 10.6 µM)

Compound: C=CCC1CNCCC1(O)C(c1cccc(Cl)c1)c1cc2cc(Cl)ccc2nc1OC (stereo not drawn) [Compound 394]
- IC90 [1]: 2.89 µg/mL (≈ 6.32 µM)
- IC90 [2]: 2.29 µg/mL (≈ 5.01 µM)

Compound: COc1nc2ccc(Cl)cc2cc1C(c1ccc(Cl)cc1)C1(O)CCNC(c2ccc(F)cc2C)C1 (single isomer, unassigned) [Compound 1]
- IC90 STA B29213 [1]: 3.32 µg/mL (≈ 6.32 µM)
- IC90 MSM 607 [2]: 1.66 µg/mL (≈ 3.16 µM)

Compound: COc1nc2ccc(SC)cc2cc1C(c1cccc(Cl)c1)C1(O)CCNC(c2ccc(F)cc2C)C1 (stereo not drawn) [Compound 165]
- IC90 STA B29213 [1]: 5.10 µg/mL (≈ 9.5 µM)
- IC90 MSM 607 [2]: 3.61 µg/mL (≈ 6.72 µM)

Compound: Cc1cc(F)ccc1C1CC(O)(C(c2cccc(Cl)c2)c2cc3cc(Br)ccc3[nH]c2=O)CCN1 (stereo not drawn) [Compound 144]
- IC90 STA B29213 [1]: 3.63 µg/mL (≈ 6.53 µM)
- IC90 MSM 607 [2]: 3.24 µg/mL (≈ 5.83 µM)

Compound: Cc1cc(F)ccc1C1CC(O)(C(c2ccc(Cl)cc2)c2cc3cc(Br)ccc3[nH]c2=O)CCN1 (stereo not drawn) [Compound 7]
- IC90 STA B29213 [1]: 1.49 µg/mL (≈ 2.68 µM)
- IC90 MSM 607 [2]: 0.94 µg/mL (≈ 1.69 µM)

Compound: COc1nc2ccc(Cl)cc2cc1C(c1ccc(Cl)cc1)C1(O)CCNCC1C (stereo not drawn) [Compound 421]
- IC90 STA B29213 [1]: 5.43 µg/mL (≈ 12.6 µM)
- IC90 MSM 607 [2]: 5.43 µg/mL (≈ 12.6 µM)

Compound: COc1nc2ccc(Cl)cc2cc1C(c1ccc(Cl)cc1)C1(O)CCNC(Cc2ccc(F)cc2)C1 (stereo not drawn) [Compound 348]
- IC90 STA B29213 [1]: 4.19 µg/mL (≈ 7.97 µM)
- IC90 MSM 607 [2]: 1.67 µg/mL (≈ 3.18 µM)

Compound: COc1nc2ccc(SC)cc2cc1C(c1ccc(Cl)cc1)C1(O)CCNCC1Cc1cccc(F)c1 (stereo not drawn) [Compound 285]
- IC90 STA B29213 [1]: >13.49 µg/mL
- IC90 MSM 607 [2]: >13.49 µg/mL

Compound: COc1nc2ccc(SC)cc2cc1C(c1ccc(Cl)cc1)C1(O)CCNC(c2ccc(F)cc2C)C1 (stereo not drawn) [Compound 274]
- IC90 STA B29213 [1]: 1.91 µg/mL (≈ 3.56 µM)
- IC90 MSM 607 [2]: 1.07 µg/mL (≈ 1.99 µM)

Compound: COc1nc2ccc(Br)cc2cc1C(c1ccc(Cl)cc1)C1(O)CCN(Cc2ccccc2)CC1C (stereo not drawn) [Compound 25]
- IC90 STA B29213 [1]: >19.87 µg/mL
- IC90 [2]: > 19.9 µg/mL

Compound: CCCN(C)CC1CC(O)(C(c2ccc(Cl)cc2)c2cc3cc(Cl)ccc3nc2OC)CCN1 (stereo not drawn) [Compound 64]
- IC90 STA B29213 [1]: 7.93 µg/mL (≈ 15.8 µM)
- IC90 MSM 607 [2]: 3.98 µg/mL (≈ 7.92 µM)
